How the values were obtained:
human SPPL2a [1] = target: T1, human SPPL2a (Homo sapiens, UniProt Q8TCT8); experiment: Sppl2a TL (translocation) imaging assay in U-2 OS cells; type: cell-based; parameters: expressed in transfected cells; conditions: U-2 OS cells expressing human SPPL2a and EGFP-TNFα(aa1-76) NTF substrate; 24 h
T1 sequence (Q8TCT8 26-520): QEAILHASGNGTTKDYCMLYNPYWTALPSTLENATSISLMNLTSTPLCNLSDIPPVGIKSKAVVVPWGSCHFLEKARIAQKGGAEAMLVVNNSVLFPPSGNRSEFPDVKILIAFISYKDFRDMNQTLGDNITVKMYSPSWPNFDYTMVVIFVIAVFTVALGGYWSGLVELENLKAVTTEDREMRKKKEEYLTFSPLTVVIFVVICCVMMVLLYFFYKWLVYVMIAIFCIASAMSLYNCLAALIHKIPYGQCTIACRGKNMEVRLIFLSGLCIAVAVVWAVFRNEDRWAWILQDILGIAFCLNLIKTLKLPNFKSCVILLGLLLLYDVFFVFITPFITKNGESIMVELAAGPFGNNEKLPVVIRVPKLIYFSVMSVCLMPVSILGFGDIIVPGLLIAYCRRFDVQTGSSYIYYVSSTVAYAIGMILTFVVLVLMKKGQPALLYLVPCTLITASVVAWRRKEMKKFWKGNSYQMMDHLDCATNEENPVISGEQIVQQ
Experimental: SPPL2a, TL in U-2 OS Cells. Stable U-2 OS cell lines expressing human SPPL2a constitutively and a EGFP-labeled TNFα(aa1-76) NTF substrate under a doxycycline-regulated promoter were used for the imaging assays. Cells were seeded at 3000 cells/30 μL/384-well in DMEM/GlutaMax™-I (Invitrogen) supplemented with tetracycline-free 10% FBS (Amimed) and incubated at 37° C., 5% CO2 for 3-4 h. Subsequently, 3.3 μL of inhibitors, prediluted in doxycycline-containing medium for 11-point concentration-response curves, were added to each well using a CyBi well liquid handling device (Cybio AG, Jena, Germany) to result in final inhibitor concentrations ranging from 100 μM to 1 nM (final DMSO concentration 0.9% (v/v)) and 5 μg/mL doxycycline). The cells were incubated with inhibitor at 37° C., 5% CO2 for 24 h. Thereafter cell were fixed in 4% PFA/PBS and in parallel, nuclei were stained with Hoechst (Invitrogen) 1:5000 in PBS for 30 min. The plates were imaged using a Cellomics ArrayScan VTI HCS reader with 10×/0.3NA objective (Thermo Fisher Scientific, USA). Six images per well were acquired. Images for the EGFP signal (Ex395, Em509) and the Hoechst nuclear dye (Ex350, Em425) were acquired simultaneously with image analysis using the “Nuclear Translocation” assay algorithm of the Cellomics ArrayScan software. Nuclei were detected based on the Hoechst staining, the nuclear mask was transferred to the EGFP channel, and a 4 pixel wide cytoplasm ring region was defined around the nucleus. The intensity of the EGFP signal was measured both in the nuclear and in the cytoplasm ring region of each individual cell (in general 800-1000 individual cells were analyzed per well), and the difference of the average nuclear versus average cytoplasmic intensity of the EGFP signal was calculated (“CircRingAvgIntenDiffCh2”=“CircAvgIntenCh2”−“RingAvgIntenCh2”). Additionally the number of cells were acquired (feature termed “ValidCellCount”) and used to calculate cell toxicity (CC50). Percent inhibition was calculated relative to the positive (0.5 μM LY-411,575=100% inhibition) and negative (DMSO=0% inhibition) controls. The IC50 value was calculated from the plot of percentage of inhibition vs inhibitor concentration using nonlinear regression analysis software, e.g., Origin (OriginLab Corp.).

human SPPL2a [2] = target: T1, human SPPL2a; experiment: Sppl2a RGA (reporter gene assay) in HEK293 cells; type: cell-based; parameters: expressed in transfected cells; host or cells: HEK293 (transient); conditions: NT-TNF-VP16-Gal4 substrate, Gal4-luciferase reporter, 24 h
Text: Sppl2a RGA (Reporter Gene Assay):
Sppl2a is an intramembrane aspartyl protease with similarities to presenilin, the active subunit of the γ-secretase complex. The assay is based on the coupling of the proteolytic degradation of a membrane bound synthetic substrate (VP16-Gal4 fusion protein with the N-terminal domain of TNF alpha), which migrates to the nucleus upon cleavage, with the Gal4 driven expression of luciferase. Inhibition of Sppl2a results in a reduction of nuclear VP16-Gal4 activator and therefore in a reduction of the production of luciferase. The luciferase dependent-luminescence is plotted against the concentrations of compound to generate a dose response curve, which allows the calculation of the IC50 value.
DNA vectors encoding human Sppl2a, NT-TNF-VP16-Gal4 and a Gal4-luciferase reporter were transiently transfected in HEK293 cells. In a typical experiment 5 μg plasmid for SPPL2a, 10 μg plasmid encoding the reporter Gal4-luciferase and 20 μg plasmid encoding the substrate NT-TF-VP16-Gal4 were mixed together. The DNA mixture was combined with 107 μl FuGENE® (Promega), 735 μl Opti-MEM® (Life Technologies) and incubated for 5 minutes at RT. To this mixture 20 mL of concentrated HEK293 cells were added and thoroughly mixed. The cell suspension was distributed to a white solid 384 well plate. Within 5 hours, 50 nl of compound in DMSO was stamped into the wells via pintool. The plate was incubated for 24 h at 37° C., 5% CO2 in a humidified incubator, before the addition of 25 μl Bright Glo. After incubation at RT for 5 min, the plate was transferred to a luminometer and the luminescence was measured. The IC50 was determined by plotting compound concentration vs. normalized luminescence values.

SMILES | IC50 (human SPPL2a [1]) [nM] | IC50 (human SPPL2a [2]) [nM]
C[C@H](CC(=O)Nc1cc(-c2cncc(C(F)(F)F)c2)nn1C)C(=O)N[C@@H]1C(=O)N2CCCN2Cc2ccccc21 [Example 98, (R)-2-Methyl-N^4-(1-methyl-3-(5-(trifluoromethyl)pyridin-3-yl)-1H-pyrazol-5-yl)-N^1-((S)-11-oxo-2,3,10,11-tetrahydro-1H,5H-benzo[d]pyrazolo [1,2-a][1,2]diazepin-10-yl)succinamide] | 14 | 8
O=C(C[C@H](C(=O)N[C@@H]1C(=O)N2CC3(CC3)CN2C(=O)c2ccccc21)C1CC1)Nc1sc(-c2ccc(C(F)(F)F)nc2)nc1Cl [Example 106, (S)-N^4-(4-Chloro-2-(6-(trifluoromethyl)pyridin-3-yl)thiazol-5-yl)-2-cyclopropyl-N^1-((S)-5,11-dioxo-10,11-dihydro-1H,3H,5H-spiro[benzo[d]pyr-azolo[1,2-a][1,2]diazepine-2,1′-cyclopropan]-10-yl)succinamide] | 10 | 8
CC[C@H](CNC(=O)c1scnc1Cl)C(=O)N[C@@H]1C(=O)N2CCCN2Cc2ccccc21 [Example 39, 4-Chloro-N-((R)-2-(((S)-11-oxo-2,3,10,11-tetrahydro-1H,5H-benzo[d]pyrazolo [1,2-a][1,2]diazepin-10-yl)carbamoyl)butyl) thiazole-5-carboxamide] | 54 | 24
CC[C@H](CNC(=O)c1scnc1C)C(=O)N[C@@H]1C(=O)N2CCCN2Cc2ccccc21 [Example 29, 4-Methyl-N-((R)-2-(((S)-11-oxo-2,3,10,11-tetrahydro-1H,5H-benzo[d]pyrazolo [1,2-a][1,2]diazepin-10-yl)carbamoyl)butyl) thiazole-5-carboxamide] | 29 | 84
CC[C@H](CNC(=O)c1sc(-c2ccc(C(F)(F)F)nc2)nc1Cl)C(=O)N[C@@H]1C(=O)N2CCCN2Cc2ccccc21 [Example 15, 4-Chloro-N-((R)-2-(((S)-11-oxo-2,3,10,11-tetrahydro-1H,5H-benzo[d]pyrazolo [1,2-a][1,2]diazepin-10-yl)carbamoyl)butyl)-2-(6-(trifluoromethyl)pyridin-3-yl)thiazole-5-carboxamide] | 11 | 8
C[C@H](CC(=O)Nc1cc(C(=O)NCCC(F)(F)F)nn1C)C(=O)N[C@@H]1C(=O)N2CCCN2Cc2ccccc21 [Example 84, (R)-2-Methyl-N^4-(1-methyl-3-((3,3,3-trifluoropropyl)carbamoyl)-1H-pyrazol-5-yl)-N^1-((S)-11-oxo-2,3,10,11-tetrahydro-1H,5H-benzo[d]pyrazolo [1,2-a][1,2]diazepin-10-yl)succinamide] | 9 | 40
CC[C@H](CNC(=O)c1sc(-c2cc(C)no2)nc1C)C(=O)N[C@@H]1C(=O)N2CCCN2Cc2ccccc21 [Example 20, 4-Methyl-2-(3-methylisoxazol-5-yl)-N-((R)-2-(((S)-11-oxo-2,3,10,11-tetrahydro-1H,5H-benzo[d]pyrazolo [1,2-a][1,2]diazepin-10-yl)carbamoyl)butyl) thiazole-5-carboxamide] | 12 | 220
Cc1cccc(C)c1NC(=O)c1cc(NC(=O)C[C@@H](C)C(=O)N[C@@H]2C(=O)N3CCCN3Cc3ccccc32)n(C)n1 [Example 110] | 15 | 20
C[C@H](CC(=O)Nc1cc(NC(=O)C(F)(F)C(F)(F)F)nn1C)C(=O)N[C@@H]1C(=O)N2CCCN2Cc2ccccc21 [Example 70, (R)-2-Methyl-N^4-(1-methyl-3-(2,2,3,3,3-pentafluoropro-panamido)-1H-pyrazol-5-yl)-N^1-((S)-11-oxo-2,3,10,11-tetrahydro-1H,5H-benzo[d]pyrazolo [1,2-a][1,2]diazepin-10-yl)succinamide] | 4 | 13
CC[C@H](CNC(=O)c1sc(-c2ccc(OC)nc2)nc1Cl)C(=O)N[C@@H]1C(=O)N2CCCN2C(=O)c2ccccc21 [Example 34, 4-Chloro-N-((R)-2-(((S)-5,11-dioxo-2,3,10,11-tetrahydro-1H,5H-benzo[d]pyrazolo [1,2-a][1,2]diazepin-10-yl)carbamoyl)butyl)-2-(6-methoxypyridin-3-yl)thiazole-5-carboxamide] | 43 | 50
CCCOc1nc(C)c(C(=O)NC[C@@H](CC)C(=O)N[C@@H]2C(=O)N3CCCN3Cc3ccccc32)s1 [Example 30, 4-Methyl-N-((R)-2-(((S)-11-oxo-2,3,10,11-tetrahydro-1H,5H-benzo[d]pyrazolo [1,2-a][1,2]diazepin-10-yl)carbamoyl)butyl)-2-propoxythiazole-5-carboxamide] | 29 | 16
Cc1nc(-c2cncc(F)c2)sc1NC(=O)C[C@@H](C)C(=O)N[C@@H]1C(=O)N2CCCN2Cc2ccccc21 [Example 79, (R)-N^4-(2-(5-fluoropyridin-3-yl)-4-methylthiazol-5-yl)-2-methyl-N^1-((S)-11-oxo-2,3,10,11-tetrahydro-1H,5H-benzo[d]pyrazolo [1,2-a][1,2]diazepin-10-yl)succinamide] | 7 | 10
Cc1nn(-c2ccc(C(F)(F)F)nc2)cc1NC(=O)C[C@@H](C)C(=O)N[C@@H]1C(=O)N2CCCN2Cc2ccccc21 [Example 92, (R)-2-Methyl-N^4-(3-methyl-1-(6-(trifluoromethyl)pyridin-3-yl)-1H-pyrazol-4-yl)-N^1-((S)-11-oxo-2,3,10,11-tetrahydro-1H,5H-benzo[d]pyrazolo [1,2-a][1,2]diazepin-10-yl)succinamide] | 12 | 11
Cc1nc(Cc2ccccc2)sc1C(=O)NC[C@@H](C)C(=O)N[C@@H]1C(=O)N2CCCN2Cc2ccccc21 [Example 58, 2-Benzyl-4-methyl-N-((R)-2-methyl-3-oxo-3-(((S)-11-oxo-2,3,10,11-tetrahydro-1H,5H-benzo[d]pyrazolo [1,2-a][1,2]diazepin-10-yl)amino)propyl) thiazole-5-carboxamide] | 373 | 194
CC[C@H](CNC(=O)c1scnc1Cl)C(=O)N[C@@H]1C(=O)N2CC3(CC3)CN2C(=O)c2ccccc21 [Example 49, 4-Chloro-N-((R)-2-(((S)-5,11-dioxo-10,11-dihydro-1H,3H,5H-spiro [benzo[d]pyr-azolo[1,2-a][1,2]diazepine-2,1″-cyclopropan]-10-yl)carbamoyl)butyl) thiazole-5-carboxamide] | 91 | 89

Source: patent US20230365571A1, “COMPOUNDS AND COMPOSITIONS AS Sppl2a INHIBITORS” (Novartis AG, priority 2020, published 2023)
